In US20160193216A1 (Nimbus Iris, Inc., priority 2012, published 2016):
Read-outs that look alike come from different tables or passages of the source.

How the values were obtained:
IRAK4 = target: T1, IRAK4 (Homo sapiens, UniProt Q9NWZ3); assay: IRAK-4 activity inhibition assay (Caliper); type: biochemical; conditions: 37 μM ATP, 3.5 nM IRAK4
T1 sequence (Q9NWZ3 1-460): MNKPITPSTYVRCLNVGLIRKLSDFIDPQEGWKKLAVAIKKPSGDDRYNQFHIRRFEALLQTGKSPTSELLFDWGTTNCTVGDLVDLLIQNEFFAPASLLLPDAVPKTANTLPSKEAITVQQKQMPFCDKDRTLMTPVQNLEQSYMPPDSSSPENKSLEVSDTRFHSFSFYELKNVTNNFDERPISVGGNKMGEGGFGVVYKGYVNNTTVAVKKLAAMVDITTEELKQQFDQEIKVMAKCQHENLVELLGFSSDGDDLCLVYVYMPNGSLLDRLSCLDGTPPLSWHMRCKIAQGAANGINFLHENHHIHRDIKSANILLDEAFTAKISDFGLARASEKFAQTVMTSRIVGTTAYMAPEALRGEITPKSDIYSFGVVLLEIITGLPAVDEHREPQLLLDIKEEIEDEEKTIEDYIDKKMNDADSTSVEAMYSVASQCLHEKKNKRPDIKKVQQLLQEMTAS

THP-1 cells = assay: LPS induced cytokine (TNFα and IL8) production assay in THP-1 cells; type: cell-based; conditions: Homo sapiens, 300 ng/mL LPS
Method in brief: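 THP-1 cells (100,000/well) pre-incubated 1 hour with compound in 0.3% DMSO, then stimulated with 300 ng/mL LPS. TNFα and IL8 in supernatant measured by HTRF at 5 hours; IL8 and viability also at 16 hours.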

MSU-induced gout = assay: In vivo murine air pouch model of human gout (MSU); conditions: Balb/c mice, oral twice a day for six days, 10, 30 or 100 mg/kg
Method: In Vivo Murine Air Pouch Model of Human Gout Compounds of the present invention were also evaluated in mice in an in vivo efficacy model for inhibiting monosodium urate (MSU) induced model of gout. An exemplary protocol for this assay follows. A sterile air pouch was created in Balb/c mice. I-67 was administered orally to the mice twice a day for six days at doses of either 10, 30 or 100 mg/kg. Following the last dose the mice were anesthetized and the air pouch was injected with a suspension of monosodium urate (MSU) to induce the inflammatory response. Four hours after the injection the air pouch exudate was collected and the number of white blood cells was measured.

[1] = tested on: collagen-induced arthritis; assay: In vivo murine collagen-induced arthritis model; conditions: DBA mice, vs vehicle
Method: In Vivo Murine Collagen-Induced Arthritis Model Compounds of the present invention were also evaluated in mice in an in vivo efficacy model for inhibiting IRAK4-mediated arthritis. An exemplary protocol for this assay follows. Male DBA mice were immunized with collagen on day 0 and day 21 and randomly enrolled into groups upon onset of disease. […] Eight mice were enrolled per group with the exception of the naïve control group, which contained four mice. Day 1 was designated as the first treatment day, and mice were evaluated daily for clinical scores until day 11. The mice were weighed on alternating days.

ABC DLBCL cell lines = assay: Cell viability assay, combination with ibrutinib; type: cell-based
Method: Compounds of the present invention were also evaluated in a cell viability assay.

IC50 (IRAK4): < 5000 nM
IC50 (THP-1 cells; read-out: IL8 production IC50): ≤ 500 nM
IC50 (THP-1 cells; read-out: TNFα production IC50): 500 to 1000 nM
SMILES: NC(=O)C[C@H]1CCc2sc3ncnc(O[C@H]4CC[C@H](N5CCOCC5)CC4)c3c21 [Compound I-67, 2-((R)-4-(((1r,4R)-4-morpholinocyclohexyl)oxy)-6,7-dihydro-5H-cyclopenta[4,5]thieno[2,3-d]pyrimidin-5-yl)acetamide]
Efficacy in MSU-induced gout (white blood cell counts in air pouch exudate) (MSU-induced gout): efficacious
Clinical scores, collagen-induced arthritis ([1]; intraperitoneally 30 mg/kg twice a day): efficacious compared to the vehicle
Clinical scores, collagen-induced arthritis ([1]; orally 30 mg/kg twice a day): efficacious compared to the vehicle
Killing of ABC DLBCL cells in combination with ibrutinib (ABC DLBCL cell lines): Synergistic killing
